Assay results reported in ChEMBL document CHEMBL1201862, “PubChem BioAssay data set” (2004).
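A five-concentration, 48-hour dose response in 96-well plates underlies each endpoint, interpolated linearly between surrounding concentrations. GI50 marks 50% less growth.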 Activity calls are given as the source filed them. Cut-off read from the data, not from the text of the source: active = GI50 up to about 1.1 µM and inactive = higher.

Columns and labels:
Assay in all cases: DTP human tumour cell line panel, 48 h
[1] = tested on: ACHN
[2] = tested on: 786-0
[3] = tested on: OVCAR-5
[4] = tested on: K562
[5] = tested on: MDA-MB-231
[6] = tested on: DU-145
[7] = tested on: PC-3
[8] = tested on: HOP-62
[9] = tested on: HCT-116
[10] = tested on: SK-MEL-28
[11] = tested on: HT-29
[12] = tested on: MCF7
[13] = tested on: OVCAR-8
[14] = tested on: KM12
[15] = tested on: UACC-62
[16] = tested on: NCI-H460
[17] = tested on: Malme-3M
[18] = tested on: SN12C
[19] = tested on: UACC-257
[20] = tested on: NCI-H23

Row | SMILES | GI50 [1] | GI50 [2] | GI50 [3] | GI50 [4] | GI50 [5] | GI50 [6] | GI50 [7] | GI50 [8] | GI50 [9] | GI50 [10] | GI50 [11] | GI50 [12] | GI50 [13] | GI50 [14] | GI50 [15] | GI50 [16] | GI50 [17] | GI50 [18] | GI50 [19] | GI50 [20]
1 | O=C1OC2(c3ccc(O)cc3Oc3cc(O)ccc32)c2c1c(-c1ccccc1)c(-c1ccccc1)c(-c1ccccc1)c2-c1ccccc1 | 19.9 µM (inactive) | 27.7 µM (inactive) | 20.4 µM (inactive) | 29.6 µM (inactive) | 18.7 µM (inactive) | 17.2 µM (inactive) | 17.9 µM (inactive) | 23.7 µM (inactive) | 24.4 µM (inactive) | 20.8 µM (inactive) | 18.7 µM (inactive) | 17.1 µM (inactive) | 22.4 µM (inactive) | 17.1 µM (inactive) | 18.7 µM (inactive) | 17.7 µM (inactive) | 23.5 µM (inactive) | 25.1 µM (inactive) | 27.7 µM (inactive) | 
2 | [O-][Cl+3]([O-])([O-])O.c1ccc(C2=NN2c2ccccc2)cc1 | 0.927 µM (active) |  | > 100 µM (inactive) | 2.32 µM (inactive) | > 100 µM (inactive) | 5.89 µM (inactive) | 6.7 µM (inactive) | > 100 µM (inactive) |  | > 100 µM (inactive) | 29.3 µM (inactive) | 60 µM (inactive) | > 100 µM (inactive) | 7.41 µM (inactive) | 1.21 µM (inactive) | 71.8 µM (inactive) | 29.5 µM (inactive) | > 100 µM (inactive) | 59.6 µM (inactive) | 85.7 µM (inactive)
3 | COc1ccc(-c2nc(-c3cc4ccccc4oc3=O)cs2)cc1 | 34 µM (inactive) | 31.3 µM (inactive) | > 100 µM (inactive) | > 100 µM (inactive) | 20.9 µM (inactive) | > 100 µM (inactive) | > 100 µM (inactive) | 32 µM (inactive) | 37.8 µM (inactive) | > 100 µM (inactive) | 95.9 µM (inactive) | > 100 µM (inactive) | 23.2 µM (inactive) | > 100 µM (inactive) | > 100 µM (inactive) | 59.2 µM (inactive) | > 100 µM (inactive) | 44.5 µM (inactive) | > 100 µM (inactive) | 
4 | O[C@@H]1CCC[C@@H]2NC[C@@H](c3ccc4c(c3)OCO4)[C@H]12 | > 100 µM (inactive) | > 100 µM (inactive) | > 100 µM (inactive) | > 100 µM (inactive) | > 100 µM (inactive) | > 100 µM (inactive) | > 100 µM (inactive) | > 100 µM (inactive) |  | > 100 µM (inactive) | > 100 µM (inactive) | > 100 µM (inactive) | > 100 µM (inactive) | > 100 µM (inactive) | > 100 µM (inactive) | > 100 µM (inactive) | > 100 µM (inactive) |  | > 100 µM (inactive) | > 100 µM (inactive)
5 | CC(=O)c1sc2n(C)c(=O)c3ccccc3[n+]2c1C | > 100 µM (inactive) | > 100 µM (inactive) | > 100 µM (inactive) | > 100 µM (inactive) | > 100 µM (inactive) | > 100 µM (inactive) | > 100 µM (inactive) | > 100 µM (inactive) | > 100 µM (inactive) | > 100 µM (inactive) | > 100 µM (inactive) | > 100 µM (inactive) | > 100 µM (inactive) | > 100 µM (inactive) | > 100 µM (inactive) | > 100 µM (inactive) |  | > 100 µM (inactive) | > 100 µM (inactive) | > 100 µM (inactive)
6 | CCN(CC)CCCNc1nncc2c(C)c3[nH]c4ccccc4c3cc12 | 0.914 µM (active) | 0.667 µM (active) | 1.71 µM (inactive) |  | 0.374 µM (active) | 0.706 µM (active) | 0.705 µM (active) | 0.378 µM (active) |  | 1.24 µM (inactive) | 0.258 µM (active) | 0.331 µM (active) | 0.685 µM (active) | 0.667 µM (active) | 0.637 µM (active) | 0.281 µM (active) | 1.04 µM (active) | 0.292 µM (active) | 1.24 µM (inactive) | 0.743 µM (active)
7 | COC(=O)C1=C(OC(=O)/C(=C/c2ccc(Cl)cc2)c2ccc(Cl)cc2)C(C(=O)OC)[C@]2(O)[C@@H](C(=O)OC)[C@H]1C[C@@H](c1ccccc1)[C@@H]2C(=O)OC (stereo partly drawn) | > 100 µM (inactive) |  | > 100 µM (inactive) | 91.6 µM (inactive) | 50.6 µM (inactive) | > 100 µM (inactive) | 62.5 µM (inactive) | 32.7 µM (inactive) | > 100 µM (inactive) | > 100 µM (inactive) | > 100 µM (inactive) |  | > 100 µM (inactive) | > 100 µM (inactive) | > 100 µM (inactive) | > 100 µM (inactive) |  | > 100 µM (inactive) | > 100 µM (inactive) | > 100 µM (inactive)
8 | CCOC(=O)C1=C(c2ccccc2)C12N(Cc1ccccc1)C(=O)C2(c1ccccc1)c1ccccc1 (stereo not drawn) | 37.7 µM (inactive) |  | 59.8 µM (inactive) | 16.5 µM (inactive) | 29.9 µM (inactive) | 75 µM (inactive) | 21.3 µM (inactive) | 67 µM (inactive) | 36.4 µM (inactive) | 74.3 µM (inactive) | 43.2 µM (inactive) | 38.6 µM (inactive) |  | 29.4 µM (inactive) | 39.5 µM (inactive) | 28.2 µM (inactive) | 93.8 µM (inactive) | 57.8 µM (inactive) | 34.7 µM (inactive) | 39.1 µM (inactive)
9 | O=C1Nc2ccccc2S/C1=C\c1cccc(C(F)(F)F)c1 | > 100 µM (inactive) | > 100 µM (inactive) | > 100 µM (inactive) | > 100 µM (inactive) | 7.85 µM (inactive) | > 100 µM (inactive) | > 100 µM (inactive) | > 100 µM (inactive) | > 100 µM (inactive) | > 100 µM (inactive) | > 100 µM (inactive) | 0.467 µM (active) | > 100 µM (inactive) | > 100 µM (inactive) | > 100 µM (inactive) | > 100 µM (inactive) | > 100 µM (inactive) | > 100 µM (inactive) | > 100 µM (inactive) | 
10 | O=C1C=CC[C@H]2O[C@@H](COC(=O)Cc3ccccc3)C[C@H]2O1 | 32.1 µM (inactive) |  | 42.6 µM (inactive) | 55.6 µM (inactive) | 63.7 µM (inactive) | 88.9 µM (inactive) | 35.2 µM (inactive) | 41.2 µM (inactive) |  | 21.9 µM (inactive) | 25.5 µM (inactive) | 44.3 µM (inactive) | 28.7 µM (inactive) | 18.2 µM (inactive) | 41.9 µM (inactive) | 31.9 µM (inactive) |  | 66.1 µM (inactive) | 40.4 µM (inactive) | 20.9 µM (inactive)
11 | CSCCCCCCCCCCOc1ccc(C=C2C(=C(C#N)C#N)c3ccccc3C2=C(C#N)C#N)cc1 | 13.1 µM (inactive) | 17.5 µM (inactive) | 16.6 µM (inactive) | 30.6 µM (inactive) | 19.4 µM (inactive) | 15.6 µM (inactive) | 17.6 µM (inactive) | 17.9 µM (inactive) | 16.9 µM (inactive) | 16.1 µM (inactive) | 17.3 µM (inactive) | 14.5 µM (inactive) | 17.5 µM (inactive) | 19 µM (inactive) |  | 17.7 µM (inactive) |  |  | 18.9 µM (inactive) | 22.1 µM (inactive)
12 | CC1=CC(=O)N(n2c(C)n[nH]c2=O)C1=O | > 100 µM (inactive) | > 100 µM (inactive) | > 100 µM (inactive) | > 100 µM (inactive) | > 100 µM (inactive) | > 100 µM (inactive) | > 100 µM (inactive) |  | > 100 µM (inactive) |  | > 100 µM (inactive) | > 100 µM (inactive) | > 100 µM (inactive) | > 100 µM (inactive) | > 100 µM (inactive) | > 100 µM (inactive) | > 100 µM (inactive) | > 100 µM (inactive) | > 100 µM (inactive) | > 100 µM (inactive)
13 | CCC1(C)N=c2c(ncn2N=C(C)C)=C(C(N)=O)N1 (stereo not drawn) | > 100 µM (inactive) | > 100 µM (inactive) | > 100 µM (inactive) | > 100 µM (inactive) | > 100 µM (inactive) | > 100 µM (inactive) | > 100 µM (inactive) | > 100 µM (inactive) | > 100 µM (inactive) | > 100 µM (inactive) | > 100 µM (inactive) |  | > 100 µM (inactive) | 22.6 µM (inactive) | > 100 µM (inactive) | > 100 µM (inactive) | > 100 µM (inactive) | > 100 µM (inactive) | > 100 µM (inactive) | > 100 µM (inactive)
14 | CC(C)c1ccc2c(c1)C=C1OC(=O)[C@]3(C)CCC[C@@]2(C)C13 (stereo partly drawn) | > 100 µM (inactive) | > 100 µM (inactive) |  | > 100 µM (inactive) | > 100 µM (inactive) | > 100 µM (inactive) | > 100 µM (inactive) | > 100 µM (inactive) | > 100 µM (inactive) | > 100 µM (inactive) | > 100 µM (inactive) | > 100 µM (inactive) | > 100 µM (inactive) | > 100 µM (inactive) | > 100 µM (inactive) | > 100 µM (inactive) |  | > 100 µM (inactive) | > 100 µM (inactive) | > 100 µM (inactive)
15 | COc1ccc2cc(C(C)C(=O)N3C(=O)OCC3(C)C)ccc2c1 (stereo not drawn) | > 100 µM (inactive) | > 100 µM (inactive) | > 100 µM (inactive) | > 100 µM (inactive) | > 100 µM (inactive) | > 100 µM (inactive) | > 100 µM (inactive) | > 100 µM (inactive) | > 100 µM (inactive) | > 100 µM (inactive) | > 100 µM (inactive) | > 100 µM (inactive) | > 100 µM (inactive) |  | > 100 µM (inactive) | > 100 µM (inactive) | > 100 µM (inactive) | > 100 µM (inactive) | > 100 µM (inactive) | > 100 µM (inactive)
